# Reference: ChEMBL document CHEMBL4507257, “Data for DCP probe ABT-100” (2021)
# What was measured:
# [1] = target: Activin receptor type-1B (Homo sapiens) (UniProt P36896); settings: Compound concentration 1000.0 nM
# [2] = target: Mitogen-activated protein kinase kinase kinase 6 (Homo sapiens) (UniProt O95382); settings: Compound concentration 1000.0 nM
# Aurora kinase B = Aurora kinase B (Homo sapiens, UniProt Q96GD4); settings: Compound concentration 1000.0 nM
# [3] = target: Tyrosine-protein kinase Blk (Homo sapiens) (UniProt P51451); settings: Compound concentration 1000.0 nM
# [4] = target: Calcium/calmodulin-dependent protein kinase type 1D (Homo sapiens) (UniProt Q8IU85); settings: Compound concentration 1000.0 nM
# [5] = target: Cyclin-dependent kinase 13 (Homo sapiens) (UniProt Q14004); settings: Compound concentration 1000.0 nM
# [6] = target: Cyclin-dependent kinase 9 (Homo sapiens) (UniProt P50750); settings: Compound concentration 1000.0 nM
# [7] = target: Cyclin-dependent kinase-like 1 (Homo sapiens) (UniProt Q00532); settings: Compound concentration 1000.0 nM
# [8] = target: Macrophage colony-stimulating factor 1 receptor (Homo sapiens) (UniProt P07333); settings: Compound concentration 1000.0 nM
# [9] = target: Death-associated protein kinase 2 (Homo sapiens) (UniProt Q9UIK4); settings: Compound concentration 1000.0 nM
# [10] = target: Serine/threonine-protein kinase DCLK3 (Homo sapiens) (UniProt Q9C098); settings: Compound concentration 1000.0 nM
# Serine/threonine-protein kinase DCLK3 (Homo sapiens), sequence (Q9C098 whole entry, the tested form may be a part): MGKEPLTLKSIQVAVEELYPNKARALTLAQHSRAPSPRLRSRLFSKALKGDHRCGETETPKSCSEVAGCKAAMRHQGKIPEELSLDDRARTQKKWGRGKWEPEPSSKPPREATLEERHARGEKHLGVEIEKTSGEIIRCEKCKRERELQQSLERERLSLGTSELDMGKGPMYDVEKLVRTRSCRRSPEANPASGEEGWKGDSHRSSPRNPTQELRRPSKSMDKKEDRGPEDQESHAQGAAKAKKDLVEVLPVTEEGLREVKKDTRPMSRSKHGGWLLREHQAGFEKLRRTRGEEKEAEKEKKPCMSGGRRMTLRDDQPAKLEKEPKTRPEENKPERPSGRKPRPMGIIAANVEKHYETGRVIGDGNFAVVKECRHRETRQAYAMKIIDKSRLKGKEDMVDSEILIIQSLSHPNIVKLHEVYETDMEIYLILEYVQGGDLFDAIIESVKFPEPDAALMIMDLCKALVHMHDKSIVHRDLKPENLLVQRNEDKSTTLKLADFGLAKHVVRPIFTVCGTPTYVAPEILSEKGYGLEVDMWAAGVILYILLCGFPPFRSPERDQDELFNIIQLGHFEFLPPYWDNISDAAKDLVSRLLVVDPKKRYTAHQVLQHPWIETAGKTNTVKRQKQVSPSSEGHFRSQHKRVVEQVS
# [11] = target: Discoidin domain-containing receptor 2 (Homo sapiens) (UniProt Q16832); settings: Compound concentration 1000.0 nM
# [12] = target: Mitogen-activated protein kinase kinase kinase 12 (Homo sapiens) (UniProt Q12852); settings: Compound concentration 1000.0 nM
# Mitogen-activated protein kinase kinase kinase 12 (Homo sapiens), sequence (Q12852 whole entry): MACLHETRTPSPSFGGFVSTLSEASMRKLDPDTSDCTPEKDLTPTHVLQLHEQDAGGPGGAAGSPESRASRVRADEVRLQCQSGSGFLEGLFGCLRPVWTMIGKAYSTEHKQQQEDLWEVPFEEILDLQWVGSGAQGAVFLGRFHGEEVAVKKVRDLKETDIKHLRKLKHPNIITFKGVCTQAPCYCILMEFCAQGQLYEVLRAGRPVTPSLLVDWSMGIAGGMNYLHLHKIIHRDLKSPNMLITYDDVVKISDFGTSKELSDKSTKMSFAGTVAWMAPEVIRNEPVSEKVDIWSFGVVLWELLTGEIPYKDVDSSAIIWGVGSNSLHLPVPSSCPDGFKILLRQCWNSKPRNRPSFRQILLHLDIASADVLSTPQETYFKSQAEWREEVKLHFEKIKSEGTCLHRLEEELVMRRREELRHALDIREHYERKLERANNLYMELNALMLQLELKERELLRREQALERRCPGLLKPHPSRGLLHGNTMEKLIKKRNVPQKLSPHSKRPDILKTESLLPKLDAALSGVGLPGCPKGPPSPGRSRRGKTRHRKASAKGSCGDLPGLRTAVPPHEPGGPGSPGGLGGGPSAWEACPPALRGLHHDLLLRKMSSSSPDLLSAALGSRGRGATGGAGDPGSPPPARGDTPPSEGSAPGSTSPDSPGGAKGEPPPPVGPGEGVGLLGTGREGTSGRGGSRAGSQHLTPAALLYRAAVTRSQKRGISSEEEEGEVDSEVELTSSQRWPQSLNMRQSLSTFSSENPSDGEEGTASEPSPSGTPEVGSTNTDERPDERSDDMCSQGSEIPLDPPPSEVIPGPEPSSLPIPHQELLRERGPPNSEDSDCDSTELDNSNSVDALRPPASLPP
# [13] = target: Epidermal growth factor receptor (Homo sapiens) (UniProt P00533); settings: Compound concentration 1000.0 nM
# [14] = target: Ephrin type-B receptor 3 (Homo sapiens) (UniProt P54753); settings: Compound concentration 1000.0 nM
# [15] = target: Ephrin type-B receptor 6 (Homo sapiens) (UniProt O15197); settings: Compound concentration 1000.0 nM
# [16] = target: Homeodomain-interacting protein kinase 2 (Homo sapiens, UniProt Q9H2X6); settings: Compound concentration 1000.0 nM
# [17] = target: Mitogen-activated protein kinase kinase kinase 2 (Homo sapiens) (UniProt Q9Y2U5); settings: Compound concentration 1000.0 nM
# [18] = target: Microtubule-associated serine/threonine-protein kinase 1 (Homo sapiens) (UniProt Q9Y2H9); settings: Compound concentration 1000.0 nM
# [19] = target: MAP kinase-interacting serine/threonine-protein kinase 1 (Homo sapiens) (UniProt Q9BUB5); settings: Compound concentration 1000.0 nM
# [20] = target: Mitogen-activated protein kinase kinase kinase 10 (Homo sapiens) (UniProt Q02779); settings: Compound concentration 1000.0 nM
# [21] = target: Myosin-IIIb (Homo sapiens) (UniProt Q8WXR4); settings: Compound concentration 1000.0 nM
# [22] = target: Serine/threonine-protein kinase Nek10 (Homo sapiens) (UniProt Q6ZWH5); settings: Compound concentration 1000.0 nM
# [23] = target: Serine/threonine-protein kinase Nek11 (Homo sapiens) (UniProt Q8NG66); settings: Compound concentration 1000.0 nM
# [24] = target: Cyclin-dependent kinase 16 (Homo sapiens) (UniProt Q00536); settings: Compound concentration 1000.0 nM
# Cyclin-dependent kinase 16 (Homo sapiens), sequence (Q00536 whole entry): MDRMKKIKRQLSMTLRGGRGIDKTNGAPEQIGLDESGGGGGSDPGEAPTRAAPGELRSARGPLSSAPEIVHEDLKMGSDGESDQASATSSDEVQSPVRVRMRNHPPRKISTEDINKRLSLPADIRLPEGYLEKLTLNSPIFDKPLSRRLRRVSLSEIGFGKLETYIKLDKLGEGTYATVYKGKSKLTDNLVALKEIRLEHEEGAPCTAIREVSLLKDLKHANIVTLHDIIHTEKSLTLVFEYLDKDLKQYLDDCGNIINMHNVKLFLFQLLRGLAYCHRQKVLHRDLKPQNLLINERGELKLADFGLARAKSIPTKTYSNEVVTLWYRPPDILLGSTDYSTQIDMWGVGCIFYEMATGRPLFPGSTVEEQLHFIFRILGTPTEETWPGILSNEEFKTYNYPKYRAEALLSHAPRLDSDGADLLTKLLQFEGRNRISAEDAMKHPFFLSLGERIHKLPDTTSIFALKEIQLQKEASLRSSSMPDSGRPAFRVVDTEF
# [25] = target: Cyclin-dependent kinase 14 (Homo sapiens) (UniProt O94921); settings: Compound concentration 1000.0 nM
# [26] = system: Phosphatidylinositol 4,5-bisphosphate 3-kinase catalytic subunit alpha isoform (Homo sapiens), P42336 [M1043I]; settings: Compound concentration 1000.0 nM
# Phosphatidylinositol 4,5-bisphosphate 3-kinase catalytic subunit alpha isoform (Homo sapiens), P42336 [M1043I], sequence (P42336 whole entry M1043I, canonical isoform): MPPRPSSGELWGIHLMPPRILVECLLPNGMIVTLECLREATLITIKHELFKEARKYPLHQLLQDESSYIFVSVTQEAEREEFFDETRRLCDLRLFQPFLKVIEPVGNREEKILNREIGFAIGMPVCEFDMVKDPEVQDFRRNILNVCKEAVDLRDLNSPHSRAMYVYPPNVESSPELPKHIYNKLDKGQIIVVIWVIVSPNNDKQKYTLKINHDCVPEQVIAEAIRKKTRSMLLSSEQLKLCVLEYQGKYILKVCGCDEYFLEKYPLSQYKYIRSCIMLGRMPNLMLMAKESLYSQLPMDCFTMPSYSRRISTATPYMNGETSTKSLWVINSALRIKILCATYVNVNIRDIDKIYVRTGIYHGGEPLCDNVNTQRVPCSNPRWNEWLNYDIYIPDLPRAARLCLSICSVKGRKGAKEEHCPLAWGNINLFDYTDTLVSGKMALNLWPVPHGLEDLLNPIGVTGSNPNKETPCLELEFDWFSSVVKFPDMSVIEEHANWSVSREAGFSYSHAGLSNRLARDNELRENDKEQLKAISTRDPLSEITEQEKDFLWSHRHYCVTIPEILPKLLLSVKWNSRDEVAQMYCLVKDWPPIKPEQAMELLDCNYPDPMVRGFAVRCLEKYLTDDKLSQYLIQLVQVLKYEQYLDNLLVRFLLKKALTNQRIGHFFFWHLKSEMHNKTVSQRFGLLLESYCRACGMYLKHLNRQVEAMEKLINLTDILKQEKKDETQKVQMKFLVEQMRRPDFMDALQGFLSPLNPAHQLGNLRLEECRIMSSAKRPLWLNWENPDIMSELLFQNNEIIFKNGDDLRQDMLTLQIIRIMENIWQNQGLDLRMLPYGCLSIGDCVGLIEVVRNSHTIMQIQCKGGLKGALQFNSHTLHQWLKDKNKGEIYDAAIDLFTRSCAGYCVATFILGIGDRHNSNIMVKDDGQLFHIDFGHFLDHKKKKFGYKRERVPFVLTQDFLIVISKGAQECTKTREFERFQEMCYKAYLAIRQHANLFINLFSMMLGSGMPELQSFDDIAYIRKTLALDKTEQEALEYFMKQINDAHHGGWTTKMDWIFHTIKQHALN
# [27] = target: Protein kinase C delta type (Homo sapiens) (UniProt Q05655); settings: Compound concentration 1000.0 nM
# Protein kinase C delta type (Homo sapiens), sequence (Q05655 whole entry, looked up): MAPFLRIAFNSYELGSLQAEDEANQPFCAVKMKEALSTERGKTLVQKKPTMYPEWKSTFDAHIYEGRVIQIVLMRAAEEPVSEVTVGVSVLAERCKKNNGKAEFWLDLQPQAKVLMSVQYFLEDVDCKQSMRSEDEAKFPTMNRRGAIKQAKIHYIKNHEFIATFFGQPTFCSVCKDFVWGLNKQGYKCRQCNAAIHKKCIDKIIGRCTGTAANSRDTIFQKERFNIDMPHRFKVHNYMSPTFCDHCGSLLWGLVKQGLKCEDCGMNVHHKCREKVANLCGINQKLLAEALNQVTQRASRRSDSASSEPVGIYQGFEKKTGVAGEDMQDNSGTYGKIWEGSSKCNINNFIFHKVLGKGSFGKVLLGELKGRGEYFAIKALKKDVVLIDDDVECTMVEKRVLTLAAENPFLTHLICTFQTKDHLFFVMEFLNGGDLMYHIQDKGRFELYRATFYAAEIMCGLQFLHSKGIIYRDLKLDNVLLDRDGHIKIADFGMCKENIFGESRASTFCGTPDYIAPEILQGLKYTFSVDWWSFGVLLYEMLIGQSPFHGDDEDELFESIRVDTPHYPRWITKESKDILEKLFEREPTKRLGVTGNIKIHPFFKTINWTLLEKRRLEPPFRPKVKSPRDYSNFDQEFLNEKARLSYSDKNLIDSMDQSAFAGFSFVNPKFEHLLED
# [28] = target: Protein kinase C epsilon type (Homo sapiens) (UniProt Q02156); settings: Compound concentration 1000.0 nM
# [29] = target: Interferon-induced, double-stranded RNA-activated protein kinase (Homo sapiens) (UniProt P19525); settings: Compound concentration 1000.0 nM
# [30] = target: Tyrosine-protein kinase Srms (Homo sapiens) (UniProt Q9H3Y6); settings: Compound concentration 1000.0 nM
# [31] = target: SRSF protein kinase 1 (Homo sapiens) (UniProt Q96SB4); settings: Compound concentration 1000.0 nM
# [32] = target: Serine/threonine-protein kinase 16 (Homo sapiens) (UniProt O75716); settings: Compound concentration 1000.0 nM
# [33] = target: Tyrosine-protein kinase SYK (Homo sapiens) (UniProt P43405); settings: Compound concentration 1000.0 nM
# [34] = target: Non-receptor tyrosine-protein kinase TYK2 (Homo sapiens) (UniProt P29597); settings: Compound concentration 1000.0 nM
# Non-receptor tyrosine-protein kinase TYK2 (Homo sapiens), sequence (P29597 whole entry): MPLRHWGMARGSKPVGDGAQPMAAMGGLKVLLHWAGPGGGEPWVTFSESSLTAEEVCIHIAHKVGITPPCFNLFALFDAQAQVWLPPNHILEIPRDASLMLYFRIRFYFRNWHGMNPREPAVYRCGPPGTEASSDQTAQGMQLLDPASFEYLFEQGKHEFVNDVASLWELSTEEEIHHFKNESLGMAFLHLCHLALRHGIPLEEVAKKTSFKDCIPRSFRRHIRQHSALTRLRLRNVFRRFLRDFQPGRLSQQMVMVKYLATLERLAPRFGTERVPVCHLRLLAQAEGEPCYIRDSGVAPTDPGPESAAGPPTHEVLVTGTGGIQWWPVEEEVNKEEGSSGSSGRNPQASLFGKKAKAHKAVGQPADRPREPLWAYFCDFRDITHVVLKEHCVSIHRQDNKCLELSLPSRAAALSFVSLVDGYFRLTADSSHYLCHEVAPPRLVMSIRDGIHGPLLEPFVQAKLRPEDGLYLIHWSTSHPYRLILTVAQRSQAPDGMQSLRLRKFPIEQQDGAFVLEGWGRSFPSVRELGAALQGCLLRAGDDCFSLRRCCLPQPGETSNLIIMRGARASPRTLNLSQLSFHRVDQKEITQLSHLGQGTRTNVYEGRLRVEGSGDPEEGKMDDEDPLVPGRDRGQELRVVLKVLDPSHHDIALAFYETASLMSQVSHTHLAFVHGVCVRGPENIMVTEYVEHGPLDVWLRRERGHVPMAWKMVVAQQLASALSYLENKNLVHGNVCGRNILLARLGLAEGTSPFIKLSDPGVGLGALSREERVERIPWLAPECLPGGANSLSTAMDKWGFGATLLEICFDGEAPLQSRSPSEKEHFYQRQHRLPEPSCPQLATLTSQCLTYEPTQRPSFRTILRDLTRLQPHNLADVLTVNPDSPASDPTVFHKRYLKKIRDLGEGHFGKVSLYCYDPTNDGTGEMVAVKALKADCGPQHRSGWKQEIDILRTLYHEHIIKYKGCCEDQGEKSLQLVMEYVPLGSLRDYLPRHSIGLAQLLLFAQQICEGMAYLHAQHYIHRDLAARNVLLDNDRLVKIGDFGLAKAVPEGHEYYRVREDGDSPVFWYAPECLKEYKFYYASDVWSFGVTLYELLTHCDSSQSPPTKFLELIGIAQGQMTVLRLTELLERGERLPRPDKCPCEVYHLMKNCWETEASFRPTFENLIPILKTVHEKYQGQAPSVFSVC
# [35] = target: T1, 5-hydroxytryptamine receptor 1A (Homo sapiens) (UniProt P08908); settings: Compound concentration 10.0 uM
# T1 sequence (whole entry): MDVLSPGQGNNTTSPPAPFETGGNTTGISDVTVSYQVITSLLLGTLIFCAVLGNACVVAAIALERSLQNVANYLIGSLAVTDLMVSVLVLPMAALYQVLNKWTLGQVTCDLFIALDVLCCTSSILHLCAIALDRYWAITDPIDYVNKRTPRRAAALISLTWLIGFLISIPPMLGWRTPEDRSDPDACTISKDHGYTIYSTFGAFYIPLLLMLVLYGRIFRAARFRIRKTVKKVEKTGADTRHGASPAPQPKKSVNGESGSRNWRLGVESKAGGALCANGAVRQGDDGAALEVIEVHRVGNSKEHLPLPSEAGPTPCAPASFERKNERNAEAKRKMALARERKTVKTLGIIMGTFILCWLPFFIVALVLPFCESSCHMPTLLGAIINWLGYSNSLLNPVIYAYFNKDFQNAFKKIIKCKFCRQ
# [36] = target: Alpha-2A adrenergic receptor (Homo sapiens) (UniProt P08913); settings: Compound concentration 10.0 uM
# [37] = target: GABA-A receptor; anion channel (Rattus norvegicus) (UniProt O09028+P15431+P18506+P18508+P19969+P20236+P23574+P23576+P28471+P28473+P30191+P62813+P63079+P63138+Q91ZM7+Q9ES14); settings: Compound concentration 10.0 uM
Structure (SMILES),residual activity [1],residual activity [2],residual activity (Aurora kinase B),residual activity [3],residual activity [4],residual activity [5],residual activity [6],residual activity [7],residual activity [8],residual activity [9],residual activity [10],residual activity [11],residual activity [12],residual activity [13],residual activity [14],residual activity [15],residual activity [16],residual activity [17],residual activity [18],residual activity [19],further results
Cn1cncc1[C@@](O)(COc1ccc(C#N)cc1-c1ccc(OC(F)(F)F)cc1)c1ccc(C#N)cc1 [A-108],100%,100%,100%,71%,100%,87%,100%,89%,85%,97%,94%,95%,100%,100%,6%,100%,100%,100%,100%,81%,residual activity [20]: 98%; residual activity [21]: 55%; residual activity [22]: 84%; residual activity [23]: 100%; residual activity [24]: 85%; residual activity [25]: 100%; residual activity [26]: 72%; residual activity [27]: 100%; residual activity [28]: 100%; residual activity [29]: 100%; residual activity [30]: 100%; residual activity [31]: 97%; residual activity [32]: 99%; residual activity [33]: 100%; residual activity [34]: 92%; inhibition [35]: -6.52%; inhibition [36]: 3.37%; inhibition [37]: 6.36%
Cn1cncc1[C@](O)(COc1ccc(C#N)cc1-c1ccc(OC(F)(F)F)cc1)c1ccc(C#N)cc1 [ABT-100],87%,76%,100%,90%,100%,67%,100%,82%,94%,82%,99%,100%,100%,80%,100%,95%,100%,77%,92%,68%,residual activity [20]: 55%; residual activity [21]: 71%; residual activity [22]: 83%; residual activity [23]: 100%; residual activity [24]: 100%; residual activity [25]: 86%; residual activity [26]: 100%; residual activity [27]: 66%; residual activity [28]: 79%; residual activity [29]: 100%; residual activity [30]: 79%; residual activity [31]: 70%; residual activity [32]: 99%; residual activity [33]: 95%; residual activity [34]: 56%; inhibition [35]: 10.8%; inhibition [36]: 32.2%; inhibition [37]: 2.72%
